Reference: patent US6506799B1, “Methods of treating cardiovascular diseases, dyslipidemia, dyslipoproteinemia, and hypertension with ether compounds” (Esperion Therapeutics, Inc., priority 1999, dated 2003)

Assays:
[1] = tested on: chow fed obese female Zucker rats; assay: Experiments B, C, D, E: serum lipids, glucose, insulin, body and liver weight in obese female Zucker rats, 14 days; assay type: in vivo, rat; settings: for Body Weight Gain (% of Pretreatment) / HDL-Cholesterol (% of Pretreatment) / Non HDL-Cholesterol (% of Pretreatment) / Triglycerides (% of Pretreatment): 14 days
Protocol: In a number of different experiments, illustrative compounds of the invention and troglitazone were administered daily at various doses to 10-week old chow fed obese female Zucker rats for 14 days in the morning by oral gavage in 1.5% carboxymethylcellulose/0.2% Tween-20 (dosing vehicle). Animals were weighed daily. Animals were allowed free access to rodent chow and water throughout the study. Blood glucose was determined after a 6-hour fast in the afternoon without anesthesia from a tail vein. Serum was also prepared from a blood sample subsequently obtained from the orbital venous plexus (with O2/CO2 anesthesia) prior to and after one week treatment and used lipid and insulin determinations. At two weeks, blood glucose was again determined after a 6-hour fast without anesthesia from a tail vein. Soon thereafter, animals were sacrificed by CO2 inhalation in the evening and cardiac blood serum was collected and assessed for various lipids and insulin. Body weight was determined daily prior to dosing and at the time of euthanasia.

[2] = tested on: chow fed male Sprague-Dawley rats; assay: Serum lipids, apolipoproteins and weight gain in chow fed male Sprague-Dawley rats after seven days of treatment; assay type: in vivo, rat; settings: 100 mg/kg/day oral gavage, 7 days; normalized against vehicle control
Protocol: Illustrative compounds of the invention were administered daily at a dose of 100 mg/kg to chow fed male Sprague-Dawley rats for seven days in the morning by oral gavage in 1.5% carboxymethylcellulose/0.2% Tween-20 (dosing vehicle). Animals were weighed daily. Animals were allowed free access to rodent chow and water throughout the study. After the seventh dose, animals were sacrificed in the evening and blood serum was assayed for lipoprotein cholesterol profiles, serum triglycerides, total cholesterol VLDL, LDL, and HDL cholesterol, and the ratio of HDL cholesterol to that of VLDL plus LDL cholesterol, apolipoproteins A-I, C-II, C-III, and E by immunoelectrophoresis, and percent weight gain.
The five compounds were tested in two separate experiments. In each experiment, the experimental data were normalized against a control group of rats which received the dosing vehicle alone.

[3] = tested on: primary rat hepatocytes; assay: Synthesis of non-saponified and saponified lipids (14C-acetate incorporation) in hepatocytes; assay type: cell-based; settings: 100 μM; 14C-acetate 2 hr; vs no compound control
Protocol: A male Sprague-Dawley rat was anesthetized by administration of sodium pentobarbitol by intraparitoneal injection at 50 mg/kg. In situ perfusion of the liver was performed as follows. […] To digest the liver, DSC solution (6.7 mM KCl, 143 mM NaCl, 9.2 mM Na HEPES, 5 mM CaCl2-2H2O, 1.7 mM Fructose, 0.029 mM Phenol red, 0.2% BSA, 100 U/ml collagenase Type I, 93 U/ml Hyaluronidase, 160 BAEE/ml trypsin inhibitor, pH 7.5) was perfused through the liver at a flow rate of 30 ml/min for 6 minutes at a temperature of 37° C. After digestion, cells were dispersed in a solution of DMEM-(DMEM containing 2 mM GlutMax-1, 0.2% BSA, 5% FBS, 12 nM insulin, 1.2 μM hydrocortisone) to stop the digestion process. The crude cell suspension was filtered through three layers of stainless steel mesh with pore sizes of 250, 106, and 75 μm respectively. Filtered cells were centrifuged at 50×g for two minutes and the supernatant discarded. The resulting cell pellet was resuspended in DMEM and centrifuged again. This final cell pellet was resuspended in DMEM+HS solution (DMEM containing 2 mM GlutMax-1, 20 nM delta-aminolevulinic acid, 17.4 mM MEM non-essential amino acids, 20% FBS, 12 nM insulin, 1.2 µM hydrocortisone) and plated to form monolayer cultures at a density of 100×10^3 cells/cm^2 on collagen coated culture dishes. Four hours after initial plating, media was changed to DMEM+(DMEM containing 2 mM GlutMax-1, 20 nM delta-aminolevulinic acid, 17.4 mM MEM non-essential amino acids, 10% FBS, 12 nM insulin, 1.2 μM hydrocortisone) and remained on cells overnight.
To test the effect of illustrative compounds of the invention on synthesis rates of non-saponified and saponified lipids, the monolayer cultures were exposed to 1 μM of lovastatin or 100 μM Compound A, B, D, E or F in DMEM+ containing 1 μCi/ml ^14C-acetate. Control cells were exposed to the same media lacking lovastatin or the test compounds. All cells were exposed to 0.1% DMSO. Metabolic labeling with ^14C-acetate continued for 2 hr at 37° C. After labeling, cells were washed twice with 1 ml of PBS followed by lysing in 1 ml of deionized water. Cells were scraped from the dishes, transferred to glass tubes and sonicated. 2.5 ml of 2:1 chloroform/methanol mixture was added followed by 1.5 ml of Phosphate Buffered Saline (PBS). To correct for extraction efficiency in the upcoming extractions, 3000 dpm of ^3H-cholesterol was added to each tube. Tubes were shaken for 30 min. to extract lipids into the organic phase followed by centrifugation for 10 minutes at 1000×g to separate the organic and aqueous phases. The lower organic phase containing total lipids was removed and placed in a new tube. The organic solution was evaporated under N2. […]

[4] = tested on: female obese Zucker rats; assay: Experiment A: serum lipids, glucose, non-esterified fatty acids and weight gain in obese female Zucker rats after seven days; assay type: in vivo, rat; settings: 120 mg/kg
Protocol: Dosing vehicle, Compound A (86 mg/kg of body weight) or troglitazone (120 mg/kg of body weight) was administered to eight week old female obese Zucker rats daily for seven days in the morning by oral gavage in 1.5% carboxymethylcellulose/0.2% Tween-20. Troglitazone was obtained commercially. Finely crushed tablets were suspended in vehicle for dosing. Orbital blood samples were obtained following a six-hour fast prior to the initial dose and also following the seventh dose.
Blood serum was assayed for total cholesterol and triglycerides (FIG. 5), lipoprotein cholesterol profiles (FIG. 6), VLDL plus LDL cholesterol combined (also referred to as apo B containing lipoprotein cholesterol or non-HDL cholesterol), HDL cholesterol, and the ratio of HDL cholesterol to that of VLDL plus LDL cholesterol (FIG. 7), serum glucose, and non-esterified fatty acids (FIG. 8), and percent weight gain (FIG. 9). […] In particular, Compound A caused a marked elevation in HDL cholesterol after one week of treatment. Using the serum total cholesterol values (FIG. 5A) and the lipoprotein cholesterol distribution (FIG. 6), the amount of cholesterol associated with non-HDL (i.e., VLDL plus LDL) and HDL were determined (FIG. 7). […] In contrast, troglitazone reduced non-HDL and HDL cholesterol by 67% and 4%, respectively.

With `CC(C)(CCCCOCCCCC(C)(C)OP(=O)(O)O)OP(=O)([O-])[O-].[Na+].[Na+]` [Compound B, phosphoric acid mono-(1,1-dimethyl-5-(5-methyl-5-phosphonooxy-hexyloxy)-pentyl)ester sodium salt] the “Body Weight Gain (% of Pretreatment)” value ([1]; Experiment B, 100 mg/kg/day) was “+12.0 % of Pretreatment”, the “HDL-Cholesterol (% of Pretreatment)” value ([1]; Experiment B, 100 mg/kg/day) was −23.3 % of Pretreatment and the “Non HDL-Cholesterol (% of Pretreatment)” value ([1]; Experiment B, 100 mg/kg/day) was “+257.1 % of Pretreatment”. For the same compound, the “Triglycerides (% of Pretreatment)” value ([1]; Experiment B, 100 mg/kg/day) was “+24.6 % of Pretreatment”, the “HDL-Cholesterol (% change)” value [2] was “+40.7 % change” and the “LDL-Cholesterol (% change)” value [2] was “+23.2 % change”. The “Triglyceride (% change)” value [2] was −31.1 % change.

`CC(C)(CCCCOCCCCC(C)(C)OP(=O)(OCc1ccccc1)OCc1ccccc1)OP(=O)(OCc1ccccc1)OCc1ccccc1` [Compound C, phosphoric acid dibenzyl ester 5-(5-(bis-benzyloxy-phosphoryloxy)-5-methyl-hexyloxy)-1,1-dimethyl-pentyl ester] was tested, and the “HDL-Cholesterol (% change)” value [2] was “+11.6 % change”, the “LDL-Cholesterol (% change)” value [2] was −4.0 % change and the “Triglyceride (% change)” value [2] was “+32.6 % change”.

For `CC(C)(CCCOCCCC(C)(C)OP(=O)(O)O)OP(=O)([O-])[O-].[Na+].[Na+]` [Compound D, phosphoric acid mono-(1,1-dimethyl-4-(4-methyl-4-phosphonooxy-pentyloxy)-butyl)ester sodium salt], the “HDL-Cholesterol (% change)” value [2] was “+13.3 % change”, the “LDL-Cholesterol (% change)” value [2] was −17.0 % change and the “Triglyceride (% change)” value [2] was “+28.0 % change”.

With `CC(C)(CCCOCCCC(C)(C)OP(=O)(OCc1ccccc1)OCc1ccccc1)OP(=O)(OCc1ccccc1)OCc1ccccc1` [Compound E, phosphoric acid dibenzyl ester 4-(4-(bis-benzyloxy-phosphoryloxy)-4-methyl-pentyloxy)-1,1-dimethyl-butyl ester] the “rates of saponified fatty acid synthesis” value [3] was “reduced the rates of saponified fatty acid synthesis”, the “HDL-Cholesterol (% change)” value [2] was “+49.1 % change” and the “LDL-Cholesterol (% change)” value [2] was −41.0 % change. For the same compound, the “Triglyceride (% change)” value [2] was −30.5 % change.

With `CC(C)(O)CCCCOCCCCC(C)(C)O` [Compound F, 6-(5-hydroxy-5-methyl-hexyloxy)-2-methyl-hexan-2-ol] the “rates of saponified fatty acid synthesis” value [3] was “reduced the rates of saponified fatty acid synthesis”.

In the case of `Cc1c(C)c2c(c(C)c1O)CCC(C)(COc1ccc(CC3SC(=O)NC3=O)cc1)O2` (stereo not drawn) [troglitazone, reference compound], the “reduction of HDL cholesterol” value ([4]; one week) is reported as 4%, the “reduction of non-HDL cholesterol” value ([4]; one week) is reported as 67% and the “reduction of non-esterified fatty acids” value ([4]; one week) is reported as 65%. The “increase in weight gain” value ([4]; seven days, vehicle 6.6%) was “+11.6%”, the “Body Weight Gain (% of Pretreatment)” value ([1]; Experiment B, 120 mg/kg/day) was “+21.7 % of Pretreatment” and the “HDL-Cholesterol (% of Pretreatment)” value ([1]; Experiment B, 120 mg/kg/day) was “+44.2 % of Pretreatment”. For the same compound, the “Non HDL-Cholesterol (% of Pretreatment)” value ([1]; Experiment B, 120 mg/kg/day) was −44.0 % of Pretreatment, the “Triglycerides (% of Pretreatment)” value ([1]; Experiment B, 120 mg/kg/day) was −76.6 % of Pretreatment and the “Body Weight Gain (% of Pretreatment)” value ([1]; Experiment C, 12 mg/kg/day) was “+20.2 % of Pretreatment”. The “HDL-Cholesterol (% of Pretreatment)” value ([1]; Experiment C, 12 mg/kg/day) was “+1.9 % of Pretreatment”, the “Non HDL-Cholesterol (% of Pretreatment)” value ([1]; Experiment C, 12 mg/kg/day) was −10.6 % of Pretreatment and the “Triglycerides (% of Pretreatment)” value ([1]; Experiment C, 12 mg/kg/day) was “+10.7 % of Pretreatment”. The “Body Weight Gain (% of Pretreatment)” value ([1]; Experiment C, 40 mg/kg/day) was “+21.2 % of Pretreatment”, the “HDL-Cholesterol (% of Pretreatment)” value ([1]; Experiment C, 40 mg/kg/day) was “+36.1 % of Pretreatment” and the “Non HDL-Cholesterol (% of Pretreatment)” value ([1]; Experiment C, 40 mg/kg/day) was −50.5 % of Pretreatment. For the same compound, the “Triglycerides (% of Pretreatment)” value ([1]; Experiment C, 40 mg/kg/day) was −59.6 % of Pretreatment, the HDL increase ([1]; Experiment C, 120 mg/kg dose) was 122% and the “Body Weight Gain (% of Pretreatment)” value ([1]; Experiment C, 120 mg/kg/day) was “+25.5 % of Pretreatment”. For the same compound, the “HDL-Cholesterol (% of Pretreatment)” value ([1]; Experiment C, 120 mg/kg/day) was “+122.4 % of Pretreatment”, the “Non HDL-Cholesterol (% of Pretreatment)” value ([1]; Experiment C, 120 mg/kg/day) was −67.5 % of Pretreatment and the “Triglycerides (% of Pretreatment)” value ([1]; Experiment C, 120 mg/kg/day) was −79.2 % of Pretreatment. The “percent liver to body weight” value ([1]; Experiment C, all doses, after two weeks, FIG. 16) was “reduced at all doses”, the “Body Weight Gain (% of Pretreatment)” value ([1]; Experiment D, 120 mg/kg/day) was “+13.8 % of Pretreatment” and the “HDL-Cholesterol (% of Pretreatment)” value ([1]; Experiment D, 120 mg/kg/day) was “+41.3 % of Pretreatment”. The “Non HDL-Cholesterol (% of Pretreatment)” value ([1]; Experiment D, 120 mg/kg/day) was −51.0 % of Pretreatment, the “Triglycerides (% of Pretreatment)” value ([1]; Experiment D, 120 mg/kg/day) was −65.9 % of Pretreatment and the “Body Weight Gain (% of Pretreatment)” value ([1]; Experiment E, 120 mg/kg/day) was “+14.4 % of Pretreatment”. For the same compound, the “HDL-Cholesterol (% of Pretreatment)” value ([1]; Experiment E, 120 mg/kg/day) was “+47.9 % of Pretreatment”, the “Non HDL-Cholesterol (% of Pretreatment)” value ([1]; Experiment E, 120 mg/kg/day) was −67.4 % of Pretreatment and the “Triglycerides (% of Pretreatment)” value ([1]; Experiment E, 120 mg/kg/day) was −69.4 % of Pretreatment.
